Assay results: ChEMBL document CHEMBL6096629, “Indolo[3,2-c]isoquinoline Hydroxamic Acid Derivatives as Novel Orally Topoisomerase-Histone Deacetylase Dual Inhibitors for NSCLC Therapy” (J Med Chem, 2025)

What was measured:
Histone deacetylase 1 = Histone deacetylase 1 (Homo sapiens, UniProt Q13547); assay: Inhibition of HDAC1 (unknown origin)
PC-3 [1] = assay: Antiproliferative activity against human PC-3 cells incubated for 24 hrs by MTT assay; assay type: functional, cell-based; conditions: PC-3, 24 h
HCT-116 [2] = assay: cells; assay type: functional, cell-based; conditions: Homo sapiens, HCT-116, 24 h
Description: Antiproliferative activity against human HCT-116 cells incubated for 24 hrs by MTT assay

NCI-H2228 [3] = assay: Antiproliferative activity against human NCI-H2228 cells incubated for 24 hrs by MTT assay; assay type: functional, cell-based; conditions: NCI-H2228, 24 h
Huh-7 [4] = assay: Antiproliferative activity against human Huh-7 cells incubated for 24 hrs by MTT assay; assay type: functional, cell-based; conditions: Huh-7, 24 h
MCF7 [5] = assay: cells; assay type: functional, cell-based; conditions: Homo sapiens, MCF7, 24 h
Description: Antiproliferative activity against human MCF7 cells incubated for 24 hrs by MTT assay

MDA-MB-231 [6] = assay: cells; assay type: functional, cell-based; conditions: Homo sapiens, MDA-MB-231, 24 h
Histone deacetylase 2 = Histone deacetylase 2 (Homo sapiens, UniProt Q92769); assay: Inhibition of HDAC2 (unknown origin)
Histone deacetylase 3 = Histone deacetylase 3 (Homo sapiens, UniProt O15379)
Description: Inhibition of HDAC3 (unknown origin)

Histone deacetylase 4 = Histone deacetylase 4 (Homo sapiens, UniProt P56524)
Description: Inhibition of HDAC4 (unknown origin)

Histone deacetylase 5 = Histone deacetylase 5 (Homo sapiens, UniProt Q9UQL6)
Description: Inhibition of HDAC5 (unknown origin)

[7] = molecular target: T1, Protein deacetylase HDAC6 (Homo sapiens, UniProt Q9UBN7)
T1 sequence (Q9UBN7 whole entry): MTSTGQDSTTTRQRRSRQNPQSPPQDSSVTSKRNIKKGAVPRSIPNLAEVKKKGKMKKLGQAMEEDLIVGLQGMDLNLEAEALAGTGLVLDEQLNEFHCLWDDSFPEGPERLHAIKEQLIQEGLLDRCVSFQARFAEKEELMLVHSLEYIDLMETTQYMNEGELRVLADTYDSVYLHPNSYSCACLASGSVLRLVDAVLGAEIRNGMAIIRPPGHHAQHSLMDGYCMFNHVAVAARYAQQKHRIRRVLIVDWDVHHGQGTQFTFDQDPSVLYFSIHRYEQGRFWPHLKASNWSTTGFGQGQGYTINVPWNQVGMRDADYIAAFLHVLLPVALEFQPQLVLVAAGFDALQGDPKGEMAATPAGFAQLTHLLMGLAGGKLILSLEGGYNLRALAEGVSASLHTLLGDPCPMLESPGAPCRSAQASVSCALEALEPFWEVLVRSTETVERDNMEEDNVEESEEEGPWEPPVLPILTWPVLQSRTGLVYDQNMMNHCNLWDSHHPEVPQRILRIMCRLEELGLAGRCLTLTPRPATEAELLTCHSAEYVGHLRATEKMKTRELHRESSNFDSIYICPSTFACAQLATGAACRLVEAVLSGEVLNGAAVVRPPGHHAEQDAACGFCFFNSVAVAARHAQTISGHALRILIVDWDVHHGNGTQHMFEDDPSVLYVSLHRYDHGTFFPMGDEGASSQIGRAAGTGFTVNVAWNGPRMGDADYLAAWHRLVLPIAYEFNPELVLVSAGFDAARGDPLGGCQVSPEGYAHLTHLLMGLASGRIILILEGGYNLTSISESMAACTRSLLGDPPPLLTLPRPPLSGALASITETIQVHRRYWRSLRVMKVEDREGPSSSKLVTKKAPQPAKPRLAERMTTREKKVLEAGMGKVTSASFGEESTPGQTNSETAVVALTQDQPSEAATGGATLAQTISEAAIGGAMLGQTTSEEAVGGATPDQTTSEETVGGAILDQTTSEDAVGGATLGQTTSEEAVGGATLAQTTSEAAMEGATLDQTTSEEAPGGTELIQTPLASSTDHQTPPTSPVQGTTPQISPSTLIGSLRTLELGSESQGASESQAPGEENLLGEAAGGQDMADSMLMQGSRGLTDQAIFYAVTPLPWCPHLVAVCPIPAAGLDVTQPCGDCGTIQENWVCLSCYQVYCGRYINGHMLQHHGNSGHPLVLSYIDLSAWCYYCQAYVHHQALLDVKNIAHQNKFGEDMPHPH
Description: Inhibition of HDAC6 (unknown origin)

Histone deacetylase 7 = molecular target: T2, Histone deacetylase 7 (Homo sapiens, UniProt Q8WUI4)
T2 sequence (Q8WUI4 whole entry): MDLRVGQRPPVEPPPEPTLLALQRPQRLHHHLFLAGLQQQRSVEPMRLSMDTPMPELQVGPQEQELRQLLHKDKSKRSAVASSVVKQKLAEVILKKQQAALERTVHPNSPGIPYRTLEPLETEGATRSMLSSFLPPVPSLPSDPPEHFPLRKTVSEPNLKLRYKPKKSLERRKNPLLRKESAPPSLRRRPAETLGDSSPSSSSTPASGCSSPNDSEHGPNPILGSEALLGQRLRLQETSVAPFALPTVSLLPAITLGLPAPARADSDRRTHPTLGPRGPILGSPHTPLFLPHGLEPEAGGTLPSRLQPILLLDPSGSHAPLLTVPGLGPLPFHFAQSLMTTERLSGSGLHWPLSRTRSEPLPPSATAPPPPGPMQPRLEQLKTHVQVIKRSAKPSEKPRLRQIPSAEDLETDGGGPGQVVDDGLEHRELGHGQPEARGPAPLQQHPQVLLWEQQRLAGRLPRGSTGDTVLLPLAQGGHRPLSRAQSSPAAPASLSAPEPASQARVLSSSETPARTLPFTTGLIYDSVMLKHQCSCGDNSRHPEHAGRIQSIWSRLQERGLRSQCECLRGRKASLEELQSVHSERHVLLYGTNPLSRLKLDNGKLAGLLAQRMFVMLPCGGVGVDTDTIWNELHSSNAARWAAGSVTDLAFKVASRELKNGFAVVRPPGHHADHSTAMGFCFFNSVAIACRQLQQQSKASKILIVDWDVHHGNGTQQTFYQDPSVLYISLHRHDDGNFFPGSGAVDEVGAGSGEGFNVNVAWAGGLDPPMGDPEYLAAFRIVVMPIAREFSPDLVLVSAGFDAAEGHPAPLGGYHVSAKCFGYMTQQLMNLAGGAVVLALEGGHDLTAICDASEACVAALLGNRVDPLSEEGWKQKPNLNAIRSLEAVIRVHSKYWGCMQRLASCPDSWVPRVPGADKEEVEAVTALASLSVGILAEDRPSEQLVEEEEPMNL
Description: Inhibition of HDAC7 (unknown origin)

Histone deacetylase 8 = molecular target: T3, Histone deacetylase 8 (Homo sapiens, UniProt Q9BY41)
T3 sequence (Q9BY41 whole entry): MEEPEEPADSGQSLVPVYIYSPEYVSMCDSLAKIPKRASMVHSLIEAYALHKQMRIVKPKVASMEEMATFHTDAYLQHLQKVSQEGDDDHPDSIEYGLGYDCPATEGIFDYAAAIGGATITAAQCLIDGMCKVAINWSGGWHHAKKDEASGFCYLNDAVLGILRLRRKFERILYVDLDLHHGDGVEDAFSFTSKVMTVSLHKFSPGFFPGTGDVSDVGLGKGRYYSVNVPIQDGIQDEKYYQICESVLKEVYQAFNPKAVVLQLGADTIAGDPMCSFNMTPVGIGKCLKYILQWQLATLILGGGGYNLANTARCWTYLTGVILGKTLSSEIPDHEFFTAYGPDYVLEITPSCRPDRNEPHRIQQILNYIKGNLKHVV
Description: Inhibition of HDAC8 (unknown origin)

Histone deacetylase 9 = Histone deacetylase 9 (Homo sapiens, UniProt Q9UKV0)
Description: Inhibition of HDAC9 (unknown origin)

[8] = molecular target: T4, Polyamine deacetylase HDAC10 (Homo sapiens, UniProt Q969S8)
T4 sequence (Q969S8 whole entry): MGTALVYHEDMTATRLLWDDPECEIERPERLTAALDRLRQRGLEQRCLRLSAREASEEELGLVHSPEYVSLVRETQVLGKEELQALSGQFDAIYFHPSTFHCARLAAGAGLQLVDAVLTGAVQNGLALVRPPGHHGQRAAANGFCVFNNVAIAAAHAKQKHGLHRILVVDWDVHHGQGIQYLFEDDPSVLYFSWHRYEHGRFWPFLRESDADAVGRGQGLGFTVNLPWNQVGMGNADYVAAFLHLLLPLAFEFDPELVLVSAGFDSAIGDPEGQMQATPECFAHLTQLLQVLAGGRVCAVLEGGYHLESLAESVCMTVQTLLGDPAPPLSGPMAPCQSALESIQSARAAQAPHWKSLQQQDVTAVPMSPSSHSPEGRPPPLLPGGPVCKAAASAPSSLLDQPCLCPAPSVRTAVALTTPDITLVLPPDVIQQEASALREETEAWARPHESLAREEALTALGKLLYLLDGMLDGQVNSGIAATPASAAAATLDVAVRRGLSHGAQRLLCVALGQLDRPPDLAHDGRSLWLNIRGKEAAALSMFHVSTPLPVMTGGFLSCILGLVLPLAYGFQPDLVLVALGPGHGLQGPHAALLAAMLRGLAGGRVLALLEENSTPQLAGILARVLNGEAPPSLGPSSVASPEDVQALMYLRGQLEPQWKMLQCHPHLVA
Description: Inhibition of HDAC10 (unknown origin)

Histone deacetylase 11 = molecular target: T5, Histone deacetylase 11 (Homo sapiens, UniProt Q96DB2)
T5 sequence (Q96DB2 whole entry): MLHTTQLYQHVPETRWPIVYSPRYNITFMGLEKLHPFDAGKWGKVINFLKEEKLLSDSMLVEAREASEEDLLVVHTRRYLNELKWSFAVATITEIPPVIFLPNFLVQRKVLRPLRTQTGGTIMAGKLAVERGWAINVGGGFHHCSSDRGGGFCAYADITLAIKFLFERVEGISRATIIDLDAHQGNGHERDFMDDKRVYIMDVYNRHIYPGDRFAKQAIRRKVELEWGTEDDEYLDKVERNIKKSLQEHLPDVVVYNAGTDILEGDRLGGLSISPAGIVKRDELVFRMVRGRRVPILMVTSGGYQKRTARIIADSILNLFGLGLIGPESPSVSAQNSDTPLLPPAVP
Description: Inhibition of HDAC11 (unknown origin)

PC-3 [9] = assay: Antiproliferative activity against human PC-3 cells incubated for 24 hrs in presence of SAHA by MTT assay; assay type: functional, cell-based; conditions: PC-3, 24 h
NCI-H2228 [10] = assay: Antiproliferative activity against human NCI-H2228 cells incubated for 24 hrs in presence of SAHA by MTT assay; assay type: functional, cell-based; conditions: NCI-H2228, 24 h
Huh-7 [11] = assay: Antiproliferative activity against human Huh-7 cells incubated for 24 hrs in presence of SAHA by MTT assay; assay type: functional, cell-based; conditions: Huh-7, 24 h
HCT-116 [12] = assay: cells; conditions: Homo sapiens, HCT-116, 24 h
Description: Antiproliferative activity against human HCT-116 cells incubated for 24 hrs in presence of SAHA by MTT assay

MCF7 [13] = assay: cells; conditions: Homo sapiens, MCF7, 24 h
Description: Antiproliferative activity against human MCF7 cells incubated for 24 hrs in presence of SAHA by MTT assay

MDA-MB-231 [14] = assay: cells; conditions: Homo sapiens, MDA-MB-231, 24 h
Description: Antiproliferative activity against human MDA-MB-231 cells incubated for 24 hrs in presence of SAHA by MTT assay

Histone deacetylase 1, sequence (Q13547 whole entry): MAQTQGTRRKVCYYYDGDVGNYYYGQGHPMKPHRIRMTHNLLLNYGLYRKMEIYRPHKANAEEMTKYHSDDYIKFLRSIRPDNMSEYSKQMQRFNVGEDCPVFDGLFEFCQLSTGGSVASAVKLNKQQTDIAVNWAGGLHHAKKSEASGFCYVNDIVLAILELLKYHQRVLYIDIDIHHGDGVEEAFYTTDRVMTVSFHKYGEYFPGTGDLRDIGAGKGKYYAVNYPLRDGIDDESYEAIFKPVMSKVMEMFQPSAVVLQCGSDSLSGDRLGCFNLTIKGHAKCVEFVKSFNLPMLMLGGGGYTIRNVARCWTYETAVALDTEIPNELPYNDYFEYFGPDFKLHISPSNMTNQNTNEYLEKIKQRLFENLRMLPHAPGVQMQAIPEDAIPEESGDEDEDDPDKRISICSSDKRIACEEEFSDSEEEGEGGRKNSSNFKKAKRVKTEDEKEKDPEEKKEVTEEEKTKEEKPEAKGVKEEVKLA
Histone deacetylase 5, sequence (Q9UQL6 whole entry): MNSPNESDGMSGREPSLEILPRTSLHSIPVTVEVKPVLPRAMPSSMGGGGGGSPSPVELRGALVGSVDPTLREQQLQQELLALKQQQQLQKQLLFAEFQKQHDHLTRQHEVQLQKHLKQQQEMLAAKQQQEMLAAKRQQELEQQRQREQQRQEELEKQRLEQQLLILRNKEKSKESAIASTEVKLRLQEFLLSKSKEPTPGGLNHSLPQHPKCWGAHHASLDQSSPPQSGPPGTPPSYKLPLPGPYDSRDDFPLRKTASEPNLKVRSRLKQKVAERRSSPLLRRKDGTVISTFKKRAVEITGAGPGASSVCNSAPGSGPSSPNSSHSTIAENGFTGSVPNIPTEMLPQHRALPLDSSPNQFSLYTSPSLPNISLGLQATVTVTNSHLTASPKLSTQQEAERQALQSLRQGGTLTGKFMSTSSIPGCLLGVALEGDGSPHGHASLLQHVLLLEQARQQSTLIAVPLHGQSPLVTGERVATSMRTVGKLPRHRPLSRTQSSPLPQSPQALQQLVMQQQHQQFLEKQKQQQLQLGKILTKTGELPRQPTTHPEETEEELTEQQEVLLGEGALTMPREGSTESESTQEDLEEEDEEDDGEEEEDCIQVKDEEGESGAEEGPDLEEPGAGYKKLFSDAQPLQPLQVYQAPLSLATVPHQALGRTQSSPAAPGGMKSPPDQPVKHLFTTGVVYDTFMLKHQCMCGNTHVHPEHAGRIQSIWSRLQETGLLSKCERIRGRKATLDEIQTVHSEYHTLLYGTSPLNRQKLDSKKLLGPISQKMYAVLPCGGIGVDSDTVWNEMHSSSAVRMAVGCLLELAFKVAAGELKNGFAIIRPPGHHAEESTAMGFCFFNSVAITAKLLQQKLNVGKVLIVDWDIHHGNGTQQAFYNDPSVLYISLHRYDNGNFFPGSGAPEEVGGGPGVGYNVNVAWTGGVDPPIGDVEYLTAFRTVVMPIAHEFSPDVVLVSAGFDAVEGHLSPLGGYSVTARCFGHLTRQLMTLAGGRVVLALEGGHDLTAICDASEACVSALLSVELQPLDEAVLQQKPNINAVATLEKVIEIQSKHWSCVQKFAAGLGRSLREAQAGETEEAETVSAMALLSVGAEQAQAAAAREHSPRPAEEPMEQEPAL
Histone deacetylase 9, sequence (Q9UKV0 whole entry): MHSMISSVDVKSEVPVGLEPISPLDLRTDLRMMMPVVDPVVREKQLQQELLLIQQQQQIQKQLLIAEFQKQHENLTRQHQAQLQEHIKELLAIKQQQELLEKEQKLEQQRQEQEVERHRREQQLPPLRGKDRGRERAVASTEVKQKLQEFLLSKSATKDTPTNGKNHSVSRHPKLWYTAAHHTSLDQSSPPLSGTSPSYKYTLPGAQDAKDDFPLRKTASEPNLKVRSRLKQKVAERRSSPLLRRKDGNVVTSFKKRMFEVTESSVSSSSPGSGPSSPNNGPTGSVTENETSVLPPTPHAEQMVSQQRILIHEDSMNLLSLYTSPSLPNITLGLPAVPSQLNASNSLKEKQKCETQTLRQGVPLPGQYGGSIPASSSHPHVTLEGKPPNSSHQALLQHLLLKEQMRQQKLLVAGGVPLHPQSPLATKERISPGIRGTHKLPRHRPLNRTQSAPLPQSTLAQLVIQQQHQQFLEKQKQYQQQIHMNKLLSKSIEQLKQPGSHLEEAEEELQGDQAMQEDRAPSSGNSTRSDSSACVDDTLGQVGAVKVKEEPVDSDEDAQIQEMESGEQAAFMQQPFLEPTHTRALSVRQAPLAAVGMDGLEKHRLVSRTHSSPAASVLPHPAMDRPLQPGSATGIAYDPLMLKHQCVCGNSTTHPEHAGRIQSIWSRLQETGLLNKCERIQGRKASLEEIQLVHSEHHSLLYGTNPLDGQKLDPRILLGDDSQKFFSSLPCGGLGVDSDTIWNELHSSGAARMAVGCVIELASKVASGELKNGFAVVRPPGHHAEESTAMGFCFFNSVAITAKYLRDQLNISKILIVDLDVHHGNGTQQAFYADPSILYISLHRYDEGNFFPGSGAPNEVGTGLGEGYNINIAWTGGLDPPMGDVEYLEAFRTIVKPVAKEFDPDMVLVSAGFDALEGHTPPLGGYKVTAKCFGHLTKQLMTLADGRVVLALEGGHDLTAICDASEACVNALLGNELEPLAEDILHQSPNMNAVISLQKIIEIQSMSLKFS
Histone deacetylase 3, sequence (O15379 whole entry): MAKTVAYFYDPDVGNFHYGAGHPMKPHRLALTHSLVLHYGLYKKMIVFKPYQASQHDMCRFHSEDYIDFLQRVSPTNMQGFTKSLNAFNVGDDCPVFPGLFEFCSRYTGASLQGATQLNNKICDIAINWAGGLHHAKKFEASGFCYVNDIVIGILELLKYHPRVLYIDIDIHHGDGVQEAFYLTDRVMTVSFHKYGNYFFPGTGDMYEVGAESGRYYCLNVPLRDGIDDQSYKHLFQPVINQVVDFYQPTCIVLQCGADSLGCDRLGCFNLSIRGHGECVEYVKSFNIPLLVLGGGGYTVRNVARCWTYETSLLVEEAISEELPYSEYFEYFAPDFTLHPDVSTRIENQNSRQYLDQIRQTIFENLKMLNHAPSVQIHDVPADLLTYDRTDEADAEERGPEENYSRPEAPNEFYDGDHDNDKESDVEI
Histone deacetylase 2, sequence (Q92769 whole entry): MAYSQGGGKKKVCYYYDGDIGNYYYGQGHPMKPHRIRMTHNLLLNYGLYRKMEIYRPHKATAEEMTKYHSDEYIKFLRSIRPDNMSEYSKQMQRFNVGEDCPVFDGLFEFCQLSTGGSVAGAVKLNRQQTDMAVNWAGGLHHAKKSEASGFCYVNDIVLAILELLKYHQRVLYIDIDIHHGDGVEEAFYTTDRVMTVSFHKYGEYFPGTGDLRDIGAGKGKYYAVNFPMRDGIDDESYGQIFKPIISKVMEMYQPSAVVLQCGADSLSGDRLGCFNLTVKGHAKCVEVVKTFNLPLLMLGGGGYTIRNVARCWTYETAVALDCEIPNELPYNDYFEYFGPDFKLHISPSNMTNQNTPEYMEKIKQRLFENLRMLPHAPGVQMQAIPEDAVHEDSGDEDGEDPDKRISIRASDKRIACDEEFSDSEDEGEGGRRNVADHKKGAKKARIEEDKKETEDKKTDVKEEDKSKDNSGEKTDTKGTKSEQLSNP
Histone deacetylase 4, sequence (P56524 whole entry): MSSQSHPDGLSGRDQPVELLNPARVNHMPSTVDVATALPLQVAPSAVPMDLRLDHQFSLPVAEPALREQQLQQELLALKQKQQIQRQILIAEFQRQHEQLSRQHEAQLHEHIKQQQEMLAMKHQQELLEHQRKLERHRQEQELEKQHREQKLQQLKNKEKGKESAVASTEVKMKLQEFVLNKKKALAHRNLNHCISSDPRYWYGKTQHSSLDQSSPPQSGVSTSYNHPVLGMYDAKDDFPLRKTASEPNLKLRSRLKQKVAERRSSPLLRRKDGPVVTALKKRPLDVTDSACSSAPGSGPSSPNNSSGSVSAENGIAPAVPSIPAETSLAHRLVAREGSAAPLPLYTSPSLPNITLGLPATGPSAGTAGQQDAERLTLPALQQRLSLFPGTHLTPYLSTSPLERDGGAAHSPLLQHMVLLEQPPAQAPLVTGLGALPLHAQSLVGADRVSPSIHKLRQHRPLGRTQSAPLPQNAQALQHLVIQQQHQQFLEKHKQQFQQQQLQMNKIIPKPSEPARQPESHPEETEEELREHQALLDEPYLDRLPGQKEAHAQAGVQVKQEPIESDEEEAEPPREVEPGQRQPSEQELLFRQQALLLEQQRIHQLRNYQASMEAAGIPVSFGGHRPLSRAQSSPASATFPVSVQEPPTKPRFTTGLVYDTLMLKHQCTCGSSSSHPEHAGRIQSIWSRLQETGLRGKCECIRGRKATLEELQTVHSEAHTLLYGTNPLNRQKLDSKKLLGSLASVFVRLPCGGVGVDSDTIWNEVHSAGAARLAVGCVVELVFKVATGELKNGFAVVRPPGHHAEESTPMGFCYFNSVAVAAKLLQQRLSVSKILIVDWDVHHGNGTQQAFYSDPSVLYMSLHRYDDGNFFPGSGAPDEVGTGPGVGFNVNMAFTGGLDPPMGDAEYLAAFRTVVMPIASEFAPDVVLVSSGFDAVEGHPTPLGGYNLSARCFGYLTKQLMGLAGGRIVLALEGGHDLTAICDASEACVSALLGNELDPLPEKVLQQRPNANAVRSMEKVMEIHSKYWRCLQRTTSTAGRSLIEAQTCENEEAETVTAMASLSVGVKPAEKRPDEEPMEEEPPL

Row | SMILES | IC50 (Histone deacetylase 1) [nM] | IC50 (PC-3 [1]) [nM] | IC50 (HCT-116 [2]) [nM] | IC50 (NCI-H2228 [3]) [nM] | IC50 (Huh-7 [4]) [nM] | IC50 (MCF7 [5]) [nM] | IC50 (MDA-MB-231 [6]) [nM] | also measured
1 | CCCCNNC(=O)CCCCn1c2cc3c(cc2c2[nH]c(=O)c4ccccc4c21)OCO3 | 3320 | 3240 | 3520 | 2170 | 6490 | 4110 | 4330 | –
2 | O=C(CCCCCCn1c2cc3c(cc2c2ncc4ccccc4c21)OCO3)NO | – | – | – | – | – | – | – | IC50 (Histone deacetylase 2): 3 nM; IC50 (Histone deacetylase 3): 3 nM; IC50 (Histone deacetylase 4): > 5000 nM; IC50 (Histone deacetylase 5): > 5000 nM; IC50 [7]: 4 nM; IC50 (Histone deacetylase 7): > 5000 nM; IC50 (Histone deacetylase 8): > 1000 nM; IC50 (Histone deacetylase 9): > 5000 nM; IC50 [8]: 6 nM; IC50 (Histone deacetylase 11): > 5000 nM
3 | CCNNC(=O)CCCCn1c2cc3c(cc2c2[nH]c(=O)c4ccccc4c21)OCO3 | 1650 | 3560 | 3190 | 2390 | 7410 | 4080 | > 8000 | –
4 | O=C(CCCCCCCn1c2cc3c(cc2c2ncc4ccccc4c21)OCO3)NO | < 2 | 2500 | 2680 | 4600 | 6590 | > 8000 | 2220 | –
5 | CCCNNC(=O)CCCCCCCn1c2cc3c(cc2c2[nH]c(=O)c4ccccc4c21)OCO3 | 1720 | > 8000 | > 8000 | > 8000 | > 8000 | > 8000 | > 8000 | –
6 | CCCNNC(=O)CCCCn1c2cc3c(cc2c2[nH]c(=O)c4ccccc4c21)OCO3 | 640 | 930 | 1310 | 1170 | 2740 | 1270 | 2620 | –
7 | CCCNNC(=O)CCCCCn1c2cc3c(cc2c2[nH]c(=O)c4ccccc4c21)OCO3 | 500 | 4600 | 2880 | 2840 | > 8000 | > 8000 | 5910 | –
8 | CCCNNC(=O)c1ccc(Cn2c3cc4c(cc3c3[nH]c(=O)c5ccccc5c32)OCO4)cc1 | 1090 | 1530 | 1500 | 2170 | 6280 | 1970 | 4450 | –
9 | CCCNNC(=O)CCCCCCn1c2cc3c(cc2c2ncc4ccccc4c21)OCO3 | 130 | > 8000 | > 8000 | > 8000 | > 8000 | > 8000 | > 8000 | –
10 | COc1cc([C@@H]2c3cc4c(cc3[C@@H](O[C@@H]3O[C@@H]5CO[C@@H](C)O[C@H]5[C@H](O)[C@H]3O)[C@H]3COC(=O)[C@H]23)OCO4)cc(OC)c1O [ETOPOSIDE] | – | – | – | – | – | – | 2870 | IC50 (PC-3 [9]): 650 nM; IC50 (NCI-H2228 [10]): 840 nM; IC50 (Huh-7 [11]): 810 nM; IC50 (HCT-116 [12]): 950 nM; IC50 (MCF7 [13]): 640 nM; IC50 (MDA-MB-231 [14]): 1010 nM
